Where two headings read alike, the source gives them in different places.

The values below come from publication PMC7917901 (Marine Drugs, 2021).

The conditions of data set [1]: human, in vivo; cited from earlier work.
Data set [2] has as its system mechanical and cold allodynia. Conditions: cited from earlier work.
The test system of data set [3] is C57BL/6J mice. The experiment in a line: Induction of mechanical allodynia and general observations after intraplantar oxaliplatin or cisplatin. Conditions: 40 µg/paw i.pl.
Data set [4] concerns nerve injury-induced hyperalgesia in mice. Conditions: mouse, in vivo, sc; cited from earlier work.
For data set [5], the system named is C57BL/6J mice. Conditions: mouse, in vivo.
The conditions of data set [6]: to oxalate and dichloro 1,2-diaminocyclohexyl-platinum complex; ref [48]; cited from earlier work. The text has this:
Although both oxaliplatin and cisplatin are platinum based antineoplastic drugs, and both act by DNA alkylation, they differ markedly in their ability to elicit pain syndromes. […] The most distinctive feature of oxaliplatin is ...

Consider `CSCC[C@@H]1NC(=O)[C@H](CC(C)C)NC(=O)[C@H](CCCNC(=N)N)NC(=O)[C@H](CO)NC(=O)[C@@H]2CSSC[C@@H]3NC(=O)[C@H](CO)NC(=O)CNC(=O)[C@H]([C@@H](C)O)NC(=O)[C@H](CSSC[C@H](N)C(=O)N[C@@H](CCCCN)C(=O)NCC(=O)N[C@@H](CCCCN)C(=O)NCC(=O)N[C@@H](C)C(=O)N[C@@H](CCCCN)C(=O)N2)NC(=O)[C@H](CSSC[C@@H](C(N)=O)NC(=O)[C@H](CCCCN)NC(=O)CNC(=O)[C@H](CO)NC(=O)[C@H](CCCNC(=N)N)NC3=O)NC(=O)[C@H](CC(=O)O)NC(=O)[C@H](Cc2ccc(O)cc2)NC1=O` [MVIIA], for which the “Dose limiting side effects” value in data set [1] was “dose limiting side effects including dizziness, nystagmus, sedation, blurred vision, and orthostatic hypotension”.
Consider `N.N.[Cl][Pt][Cl]` [cisplatin], for which the “Type of allodynia caused” value in data set [2] (ref [45],[46],[47]) was “only evokes mechanical allodynia”. Further, the “Adverse signs after platinum drug injection” value in the data set with C57BL/6J mice [3] was “No sign of adverse effects including, licking, shaking, or lameness of the injected paws was observed”. In addition, the “Mechanical PWT after cisplatin” value with C57BL/6J mice [3] (right hind paw, 24 h after injection, mean ± SEM, n = 18, naïve 3.3 ± 0.1 g, p < 0.0001) amounted to 1.9 ± 0.1 g.
In the case of `COC(=O)C1=C(C)NC(C)=C(C(=O)OC)C1c1ccccc1[N+](=O)[O-]` [nifedipine], the “Effect on nerve injury-induced hyperalgesia” value in data set [4] was “ineffective”.
Consider `O=C1[O][Pt]2([NH][C@@H]3CCCC[C@H]3[NH]2)[O]C1=O` [oxaliplatin], for which, in data set [2] (in vivo), the “Type of allodynia caused” value is “causes both mechanical and cold allodynia”. Moreover, in the data set with C57BL/6J mice [5], the “Adverse signs after platinum drug injection” value is “maintained healthy appearance and body weight with no sign of licking, shaking, or lameness of the injected paw”; the “Mechanical PWT after oxaliplatin” value amounted to 1.4 ± 0.1 g. For the same compound, the “Non-enzymatic transformation” value in data set [6] is given as “fast, non-enzymatic transformation”.
